From US9493420B2, “Quinoline derivatives and uses thereof” (Portland State University, priority 2005, dated 2016)

Legend:
[1] = test system: mitogen-induced murine spleen lymphocytes; type: cell-based; conditions: mouse spleen lymphocytes
Procedure: Mouse spleen lymphocytes were isolated from C57B1/6J mice by teasing tissues on a metallic sieve screen. […] Two hundred (200) μl isolated cells were then seeded in separate wells of a 96-well flat-bottom tissue culture plate at a density of 2×10^5 cells per well. […] After 72 hours incubation in a humidified atmosphere at 37° C. and 5% CO2, a solution of resazurin PBS was added to a final concentration 10 μM, and the plates were returned to the incubator for another 24 hours. Resazurin is a substrate which changes color in response to metabolic activity (such as, living cells). […] LC50 values were determined from plots of florescence versus drug concentration using non-linear regression by Prism software.

[2] = biological target: T1, recombinant human norepinephrine (hNET) transporter (Homo sapiens, UniProt P23975); assay: Inhibition of [3H]neurotransmitter uptake, hNET; type: cell-based
T1 construct: expressed in transfected cells; host or cells: HEK cells expressing hNET
Procedure: (§1) Selected RCQs were tested for inhibition of [^3H]neurotransmitter uptake by the recombinant human serotonin (hSERT), dopamine (HEK-hDAT), and norepinephrine (hNET) transporters by a modification of the method of Eshleman et al. (J. Pharmacol. Exp. Ther., 289(2):877-885, 1999). HEK-hDAT, hSERT, and -hNET expressing cells were grown on tissue culture dishes. After removing the medium and washing the plates with Ca^2+-, Mg^2+-free phosphate buffered saline (PBS), fresh medium was added and the plates were placed in a 25° C. water bath for 5 minutes. Cells were gently lifted from the plates and cell clusters separated by trituration. 50 μL aliquots of the suspended cells were added to assay tubes containing drugs and Krebs-HEPES assay buffer in a final volume of 0.5 mL.
(§2) Competition experiments were conducted in triplicate. After a 10 minute preincubation period at 25° C., [^3H]neurotransmitter (20 nM final concentration; [^3H]DA, [^3H]5-HT, or [^3H]NE) were added, and the mixtures incubated for 10 minutes. Reactions were terminated by filtration through Wallac filtermat A filters (presoaked in 0.05% polyethylenimine), using a Tomtec cell harvester. Scintillation fluid was added to each filtered spot, and radioactivity remaining on the filters determined using a Wallac 1205 Betaplate scintillation counter.
(§3) Specific uptake was defined as the difference in uptake observed in the absence and presence of 5 μM mazindol (hDAT and hNET) or 5 μM imipramine (hSERT). Inhibition of uptake was determined by non-linear regression using Prism software.

[3] = biological target: T2, recombinant human serotonin (hSERT) transporter (Homo sapiens, UniProt P31645); assay: Inhibition of [3H]neurotransmitter uptake, hSERT; type: cell-based
T2 construct: expressed in transfected cells; host or cells: HEK cells expressing hSERT
Procedure: as §1, §2, §3

[4] = Water solubility; type: physicochemical
[5] = Heme binding by UV-VIS spectrophotometric titration (association constant); conditions: pH 5.7; heme assumed dimeric (μ-oxo)
Description: Optionally, heme binding of RCQ compounds can be determined by any method known in the art, including, for example, spectrophotometric methods, like UV-VIS spectroscopy or NMR spectroscopy. Methods of measuring heme binding to a variety of molecules using the UV-VIS spectrum have been described (see, e.g., Xu et al., J. Inorg. Biochem., 86 (2-3):617-625, 2001; Xu et al., Antimicrob. Agents Chemother., 46(1):144-150, 2002). Generally, a heme-binding compound (such as a disclosed RCQ) is mixed in increasing concentration with heme (or a heme model compound, such as porphyrin or metalloporphyrin) and the absorbance spectrum is measured from the ultraviolet region well into the visible region (from about 300 nm to about 750 nm). This spectral range includes the so-called Soret and Q-band regions that arise from porphyrin or metalloporphyrin absorbance. Upon interaction between a heme-binding compound and heme (or a heme model compound, such as porphyrin or metalloporphyrin), decreased absorbance in the Soret region is observed. […]
In particular examples, the formation of heme-RCQ complexes can be determined by UV-VIS spectrophotometric titration, using a variety of commercially available spectrophotometers (such as a Varian-Cary 3E spectrophotometer). […] Optionally, pH can be monitored throughout the procedure to ensure that it remains unchanged. […]

T2 sequence (P31645 whole entry): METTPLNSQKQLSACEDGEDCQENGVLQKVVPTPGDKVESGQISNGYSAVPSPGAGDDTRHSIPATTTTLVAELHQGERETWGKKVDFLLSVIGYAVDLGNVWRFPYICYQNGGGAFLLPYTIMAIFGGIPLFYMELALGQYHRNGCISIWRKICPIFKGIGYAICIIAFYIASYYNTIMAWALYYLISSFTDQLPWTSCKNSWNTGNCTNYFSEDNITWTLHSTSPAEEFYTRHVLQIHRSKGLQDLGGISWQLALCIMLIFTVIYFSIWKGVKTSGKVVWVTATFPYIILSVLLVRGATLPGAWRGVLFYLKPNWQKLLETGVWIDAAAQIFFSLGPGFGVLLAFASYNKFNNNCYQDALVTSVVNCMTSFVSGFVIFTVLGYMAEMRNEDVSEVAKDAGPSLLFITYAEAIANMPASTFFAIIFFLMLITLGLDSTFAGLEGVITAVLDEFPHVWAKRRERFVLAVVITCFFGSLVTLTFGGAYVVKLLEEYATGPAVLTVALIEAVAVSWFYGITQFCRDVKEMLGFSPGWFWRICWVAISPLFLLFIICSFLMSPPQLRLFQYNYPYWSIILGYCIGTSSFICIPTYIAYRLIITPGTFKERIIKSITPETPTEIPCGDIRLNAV
T1 sequence (P23975 whole entry): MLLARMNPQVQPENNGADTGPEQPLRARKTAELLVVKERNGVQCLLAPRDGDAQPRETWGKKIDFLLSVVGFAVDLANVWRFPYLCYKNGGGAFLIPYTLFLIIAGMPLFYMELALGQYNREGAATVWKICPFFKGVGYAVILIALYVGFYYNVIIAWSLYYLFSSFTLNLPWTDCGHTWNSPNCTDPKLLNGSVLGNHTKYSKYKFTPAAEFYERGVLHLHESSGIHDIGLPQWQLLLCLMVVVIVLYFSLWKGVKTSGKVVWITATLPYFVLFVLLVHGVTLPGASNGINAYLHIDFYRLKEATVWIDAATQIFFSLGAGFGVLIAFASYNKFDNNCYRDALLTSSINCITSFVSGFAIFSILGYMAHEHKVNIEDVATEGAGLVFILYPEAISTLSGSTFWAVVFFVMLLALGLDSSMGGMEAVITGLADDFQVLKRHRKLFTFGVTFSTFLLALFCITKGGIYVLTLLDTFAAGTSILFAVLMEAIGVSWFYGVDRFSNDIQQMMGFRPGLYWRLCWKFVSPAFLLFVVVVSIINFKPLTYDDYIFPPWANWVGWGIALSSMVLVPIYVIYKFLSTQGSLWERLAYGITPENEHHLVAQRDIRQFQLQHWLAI

CN(CCCNc1ccnc2cc(Cl)ccc12)CCCN1c2ccccc2CCc2ccccc21 [RCQ_02, N′-(7-Chloro-quinolin-4-yl)-N-[3-(10,11-dihydro-dibenzo[b,f]azepin-5-yl)-propyl]-N-methyl-propane-1,3-diamine]
Cytotoxicity ([1]; LC50, 72 hours + 24 hours resazurin): 700 nM | cytotoxicity values ([1]; Table 14): 700 nM | IC50 [2]: 350 nM | IC50 [3]: 230 nM | water solubility [4]: relatively low water solubility | heme2.RCQ_02 association constant [5]: approximately 7.5×10^5 M^−1
